Here are results for five compounds from patent US5652234A, “3-(7-oxo-1-aza-4-oxabicyclo[3.2.0]hept-3-yl)alanine derivative as antitumor agent” (Taiho Pharmaceutical Co., Limited, priority 1994, dated 1997).

The test system of one data set is KB cells. Kind of data set: cells. In kind it is cell-based. Conditions: Homo sapiens, 72 h, read-out: Cytotoxicity TD50 KB. The protocol:
In vitro KB cell cytoxocity assay was done by modification of the crystal violet assay (Grillis et al., Anal Biochem., 159, 109-113 (1986).
KB cells were cultivated in Eagles minimum essential medium supplemented with 10% calf serum and incubated at 37° C. in a humidified 5% CO2 atmosphere to prepare a cell stock. Cells were counted using a neubauer hemocytometer and seeded in 96 well plates at 100 μl of 3×10^4 cells/ml and cultured for one day. Test compounds were diluted and 100 .parallel.l of the solution was added in triplicate wells to give final concentration of 10, 5, 1, 0.5, 0.1, 0.05 and 0.01 μg/ml. Control wells were identical except that test compound was absent. These were cultured for three days. Then the cells were fixed with addition of 20 μl of 25% glutaraldehyde for 15 minutes, washed with water and dried. Then stained with 100 μl of 0.05% crystal violet for 15minutes, washed with water and dried. The wells are eluted with 100 μl of 0.05M NaH2 PO4 /ethanol (1:1 v/v) and read at OD540 on a multiscan spectrophotometer. Inhibition value of cell Growth was calculated based on optical density using the following equation; [formula] TD50 values were calculated from linear recression ines of the log-logit plot.

The subject of a further data set is β-lactamase. The note with it: natural metabolites isolated from Streptomyces culture; cited from earlier work.
For data set [1] the following is noted: isolation to be done in the dark at low temperatures; cited from earlier work.
The next data set concerns Sarcoma 180. As to the kind of experiment: In Vivo Antitumor Activity Against Sarcoma 180. Also on record: species or system male ICR mice. The note with it: s.c. - i.p., days 1, 5 and 9, tumor weight on day 12. How it is done: The compounds of general formula (I) were tested in vivo against Sarcoma 180 xenografted tumor to mice as illustrated herein after.
Sarcoma 180, 5×10^6 cells were inoculated by S.C. to male ICR mice (6 weeks old) on day 0. Drugs were administered on days 1,5 and 9. Mice were killed and tumor weight was measured on day 12 after transplantation. The percentage inhibition of tumor growth was calculated from the mean tumor weight of the treated group compared with that of the control group. Number of mice used in each group was between 6 to 10.

The test system of the next data set is L1210 cells. As to the kind of experiment: cells. In kind it is cell-based. The note with it: Mus musculus, L1210, 72 h, read-out: Cytotoxicity TD50 L-1210. How it is done: Vitro L1210 Cell Cytoxocity Assay
In vitro :L1210 cell cytotoxicity assay was done by the method of microculture tetrazolium assay (Alley et al., Cancer Research, 48, 589-601 (1988).
L1210 cells were cultivated in RPMI 1640 medium supplemented with 10% fetal calf serum and […] of 2-mercaptoethanol at 37° C. in humidified 5% CO2 atmosphere no prepare a cell stock. Cells were counted using neubauer hemocytometer and seed in 96 well plates at 100 μl of 0.5×10^4 cells per ml. The test compounds were diluted and 100 μl of the solution was added in triplicate wells to give the final concentration of 10, 5, 1, 0.5, 0.1, 0.05 and 0.01 μg/ml. Control wells were identical except :hat the test compound was absent. These were cultured for three days. Results were assayed using the microculture tetrazolium assay briefly. 50 μl of MTT formazoan working solution (1:5 v/v in culture medium) was added to each well and cultures were incubated at 37° C. for 4 hrs. Culture plates were centrifuged at low speed for 5 minutes. All but 10-20 μl of culture medium supernatant was removed by slow aspiration and […] and read at OD540 on a multiscan spectrophotometer. Inhibition value of cell growth was calculated based on optical density using the following equation; [formula] TD50 values were calculated from linear depression ines of the log-logit plot.

With `N[C@H](C[C@@H]1CN2C(=O)C[C@@H]2O1)C(=O)O` (mixture of isomers) [compound 12, 3-[(3RS,5SR)-7-oxo-1-aza-4-oxabicyclo[3.2.0]hept-3-yl]-D-alanine], in the data set on KB cells, the IC50 was 0.098 µg/mL.
In the case of `CC(C)C(N)C(=O)NC(C(=O)O)C(O)C1CN2C(=O)CC2O1` (centres unmarked) [G0069A], in the data set on β-lactamase, the β-lactamase inhibitory properties entry is recorded as “None of the above metabolites exhibited β-lactamase inhibitory properties”. In data set [1], the chemical stability result is listed as “chemicalyl unstable”.
Regarding `N[C@@H](C[C@@H]1CN2C(=O)C[C@@H]2O1)C(=O)O` (mixture of isomers) [compound 11, 3-[(3RS,5SR)-7-oxo-1-aza-4-oxabicyclo[3,2,0]hept-3-yl]-L-alanine], the IC50 stood at 0.023 µg/mL in the data set with KB cells and 0.1 µg/mL in the data set with L1210 cells. Further, the “% Inhibition in 12 days (tumor growth, tumor weight)” value in the data set on Sarcoma 180 (1.56 mg/kg/day) is 71.4%; in the data set with Sarcoma 180 (3.13 mg/kg/day), 79.5%.
As to `O=C(N[C@H](C[C@@H]1CN2C(=O)C[C@@H]2O1)C(=O)OC(c1ccccc1)c1ccccc1)OCc1ccccc1` (mixture of isomers) [10B, N-(benzyloxycarbonyl)-3-[(3RS,5SR)-7-oxo-1-aza-4-oxabicyclo[3.2.0]hept-3-yl]-D-alanine diphenylmethyl ester], the IC50 came to 1.78 µg/mL in the data set with KB cells and 7.5 µg/mL in the data set with L1210 cells.
On to `O=C(N[C@@H](C[C@@H]1CN2C(=O)C[C@@H]2O1)C(=O)OC(c1ccccc1)c1ccccc1)OCc1ccccc1` (mixture of isomers) [10A, N-Benzyloxycarbonyl-3-[(3RS,5SR)-7-oxo-1-aza-4-oxabicyclo [3.2.0]hept-3-yl]-L-alanine diphenylmethyl ester], for which the values for the IC50 with KB cells and in the data set on L1210 cells were 3.17 µg/mL and 10 µg/mL, respectively.
